# Laboratory results reported in patent US20230047825A1, “ANTIMICROBIAL PEPTIDES” (priority 2019, published 2023).
# Read-outs that look alike come from different tables or passages of the source. Marks after values point to notes of the source that are not given here. Where a SMILES comes first, the peptide text is derived from it.
# What was measured:
# [1] = test system: Klebsiella pneumoniae NCTC 13368; assay type: cell-based; conditions: KP13368, in µg/mL
# [2] = test system: EMR Staphylococcus aureus-16 (EMRSA-16); assay type: cell-based; conditions: EMRSA16
# [3] = test system: Pseudomonas aeruginosa NCTC 13437; test: Antibacterial activity assay (broth microdilution MIC); assay type: cell-based; conditions: PA13437, in µg/mL
# Klebsiella pneumoniae M6 = assay type: cell-based
# [4] = test system: Pseudomonas aeruginosa PA01; test: Antibacterial activity assay (broth microdilution MIC); assay type: cell-based
# HeLa = test: Cytotoxicity assay (XTT); assay type: cell-based, human; design: Toxicity HeLa: unit not given beside the values
# How it was run: (§1)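 Cells seeded 24 h in EMEM with 10% FBS and NEAA at 37 °C, 10% CO2, then medium replaced with peptide dilutions. After a further 24 h exposure, viability read by XTT tetrazolium staining.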
# [5] = test system: EMR Staphylococcus aureus-15 (EMRSA-15); assay type: cell-based; conditions: EMRSA15
# [6] = test system: VR Enterococcus faecium NCTC 12204; test: Antibacterial activity assay (broth microdilution MIC); assay type: cell-based; conditions: VRE12204, in µg/mL
# [7] = test system: Acinetobacter baumannii AYE; assay type: cell-based; conditions: AYE
# [8] = test system: Acinetobacter baumannii ATCC 17978; assay type: cell-based; conditions: in µg/mL; for MIC, Stability in serum (MH): Ab17978
# VRE12201 = test: Antibacterial activity assay (broth microdilution MIC); assay type: cell-based, Enterococcus faecalis; conditions: medium and unit inferred
# Excerpt: Antibacterial activity assay.
# The bacterial strains used are as in the above examples. A table of strains is provided below to aid understanding.
# [9] = Electrophysiology (Port-a-Patch patch-clamp) on model membranes; conditions: DPhPG
# Excerpt: The depth of insertion into each membrane is shown as the Z-position for each residue, averaged over all four peptides, relative to the phosphate group plane in the upper POPE/POPG (A/E/I) or POPG (C/G/K) bilayer leaflet in six MD simulations. Positive or negative values indicate the peptides are below or above the phosphate group. Representative current traces illustrating membrane activity when DPhPE/DPhPG (B/F/J) or DPhPG (D/H/L) model membranes are challenged with each peptide at the indicated concentration (lowest concentration that induced detectable activity). Data is for pleurocidin (A-D), pleurocidin-KR (E-H) and pleurocidin-VA (I-L). Membrane disordering by each peptide in mixed POPE/POPG bilayers is shown with data obtained from ^2H solid-state NMR (M/N) or from MD simulations where order parameters are calculated for all lipids within 4 Å of a peptide (O/P).
# Molecular dynamics simulations. Simulations were carried out on either the ARCHER Cray XC30 supercomputer, or Dell Precision quad core T3400 or T3500 workstations equipped with a 1 kW Power supply (PSU) and two NVIDA PNY GeForce GTX570 or GTX580 graphics cards using Gromacs.^53 The CHARMM36 all-atom force field was used in all simulations^54-56. All simulations were run, as described previously^20 and for a total of 200 nanoseconds and repeated twice, with peptides inserted at different positions and orientations, giving a total of approximately 4.0 μs simulation. Liposome preparation and circular dichroism (CD) spectroscopy. Small unilamellar vesicles (SUV) were produced and far-UV spectra of the peptides obtained as described previously^20 using a Chirascan Plus spectrometer (Applied Photophysics, Leatherhead, UK) with samples maintained at 310 K. For liposome experiments the lipid concentration was 5 mM and a peptide to lipid molar ratio of 1:100 was maintained while the SDS micelles concentration was 20 mM with 200 μM peptide. Electrophysiology experiments (Patch-clamp). Patch clamp experiments were performed using the Port-a-Patch® (Nanion Technologies GmbH, Munich, Germany) with giant unilamellar vesicles (GUVs) composed of DPhPE/DPhPG (60:40, mol:mol) or DPhPG prepared by the electroformation method using the Nanion Vesicle Prep Pro setup (Nanion Technologies GmbH, Munich, Germany) as described previously.^20
# Synergy experiments were performed following a checkerboard protocol.
# [10] = test system: Escherichia coli NCTC 12923; assay type: cell-based
# HEK293 = test: Cytotoxicity assay (XTT); assay type: cell-based, human
# How it was run: as §1
# [11] = test system: MS Staphylococcus aureus ATCC 9144; assay type: cell-based
# [12] = untitled table, medium/unit not given, values match RPMI of Table 2
# [13] = medium and unit not given, in µg/mL
# [14] = untitled table, medium/unit inferred, values match RPMI of Table 2
# [15] = untitled table, medium/unit not given, values match RPMI of Table 2, in µg/mL
structure (smiles),measurement,setting,value
CC(C)C[C@H](NC(=O)[C@H](Cc1ccc(O)cc1)NC(=O)[C@H](Cc1c[nH]cn1)NC(=O)[C@@H](NC(=O)[C@H](CC(C)C)NC(=O)[C@H](C)NC(=O)[C@H](C)NC(=O)[C@H](CCCCN)NC(=O)CNC(=O)[C@H](C)NC(=O)[C@H](Cc1c[nH]cn1)NC(=O)[C@H](CCCCN)NC(=O)CNC(=O)[C@H](C)NC(=O)[C@H](Cc1c[nH]cn1)NC(=O)[C@H](C)NC(=O)[C@H](C)NC(=O)[C@H](CCCCN)NC(=O)[C@H](CCCCN)NC(=O)[C@H](Cc1ccccc1)NC(=O)[C@H](Cc1ccccc1)NC(=O)[C@H](CO)NC(=O)CNC(=O)[C@H](Cc1c[nH]c2ccccc12)NC(=O)CN)[C@@H](C)O)C(N)=O [Pleurocidin-VA] (H-GWGSFFKKAAHAGKHAGKAALTHYL-NH2; N-terminus assumed),"MIC, Stability in serum (MH)",[1]; No serum,8
same,"MIC, Stability in serum (MH)",[1]; Serum (10% fetal bovine serum),16
same,MIC on initial panels,[1]; medium and unit not given,4-8
same,MIC,[1]; [12],32
same,MIC on initial panels,[2]; [13],64-128
same,MIC,[2]; [14],> 32 µg/mL
same,"MIC, Stability in serum (MH)",[3]; No serum,16*
same,"MIC, Stability in serum (MH)",[3]; Serum (10% fetal bovine serum),>128
same,MIC on initial panels,[3]; medium and unit not given,32
same,MIC,[3]; [12],>32
same,"MIC, Stability in serum (MH)",Klebsiella pneumoniae M6; No serum,16 µg/mL
same,"MIC, Stability in serum (MH)",Klebsiella pneumoniae M6; Serum (10% fetal bovine serum),8 µg/mL
same,MIC on initial panels,Klebsiella pneumoniae M6; [13],4-8
same,MIC,Klebsiella pneumoniae M6; [15],32
same,"MIC, Stability in serum (MH)","[4]; No serum, in µg/mL",16*
same,"MIC, Stability in serum (MH)","[4]; Serum (10% fetal bovine serum), in µg/mL",>128
same,MIC on initial panels,[4]; [13],16-32
same,MIC,[4]; [14],> 32 µg/mL
same,Toxicity HeLa,HeLa; unit not given,>400
same,"Toxicity HeLa (EC50), Peptide concentration",HeLa; value printed in parentheses,(>400) μg/ml
same,MIC on initial panels,[5]; medium and unit inferred,64 µg/mL
same,MIC,[5]; [14],32 µg/mL
same,MIC on initial panels,[6]; medium and unit not given,32-64
same,MIC,[6]; [12],32
same,"MIC, Peptide concentration",[7],16 µg/mL
same,"MIC, Stability in serum (MH)",[7]; No serum,2 µg/mL
same,"MIC, Stability in serum (MH)",[7]; Serum (10% fetal bovine serum),4 µg/mL
same,MIC on initial panels,[7]; [13],2
same,MIC,[7]; [15],16
same,MIC on initial panels,"[8]; AB17978, medium and unit not given",1-2
same,MIC,"[8]; AB17978, untitled table, medium/unit not given, values match RPMI of Table 2",32
same,"MIC, Stability in serum (MH)",[8]; No serum,2
same,"MIC, Stability in serum (MH)",[8]; Serum (10% fetal bovine serum),4
same,MIC on initial panels,VRE12201,> 128 µg/mL
same,Peptide concentration necessary to start membrane activity,[9],2.5 µM
same,"MIC, Stability in serum (MH)","[10]; EC12923, No serum",1 µg/mL
same,"MIC, Stability in serum (MH)","[10]; EC12923, Serum (10% fetal bovine serum)",1 µg/mL
same,MIC on initial panels,"[10]; EC12923, medium and unit not given, in µg/mL",1
same,MIC,"[10]; EC12923, untitled table, medium/unit not given, values match RPMI of Table 2, in µg/mL",32
same,"MIC, Peptide concentration",[10]; NCTC 12923,1 µg/mL
same,Toxicity HEK293,HEK293; unit not given,~400
same,"Toxicity HEK293 (EC50), Peptide concentration",HEK293; value printed in parentheses,(~400) μg/ml
same,"MIC, Peptide concentration",[11]; ATCC 9144,8 µg/mL
same,MIC on initial panels,"[11]; MSSA9144, medium and unit inferred",8 µg/mL
same,MIC,"[11]; MSSA9144, untitled table, medium/unit not given, values match RPMI of Table 2, in µg/mL",32
